Source: PubChem BioAssay AID2253 (Southern Research Specialized Biocontainment Screening …, 2010)

system: THP-1 viability, CellTiter-Glo luminescence, 72 h; assay: human monocytic cell viability reduction – S. typhimurium screen hits, cytotoxicity control for Salmonella PhoP regulon inhibitors, dose response (AID 2253)

**Q.** How did the EC50 turn out when `Nc1nc2ccccc2n1CCOc1ccccc1Cl` was run?
**A.** The EC50 was 12.8 µM.

**Q.** For `O=C(C[n+]1cccc(CNC(=O)c2ccc(OC(F)F)cc2)c1)Nc1ccc(SC(F)F)cc1`, which EC50 is on record?
**A.** The EC50 was 11.7 µM.

**Q.** `C/C(=N\Nc1nc2ccccc2[nH]1)c1ccccn1` was tested. Which EC50 did it give?
**A.** Its EC50 is 0.92 µM.

**Q.** How did the EC50 turn out when `CCCOc1ccc(Br)cc1CSC(=N)N` was run?
**A.** Its EC50 is 5.31 µM.

**Q.** For `COc1ccc(Nc2nnc(SCc3cn4c(C)cccc4n3)s2)cc1`, which EC50 is on record?
**A.** The EC50 was 9.34 µM.

**Q.** Which EC50 does the source give for `OC(c1cc(C(F)(F)F)nc2c(Cl)cc(Cl)cc12)C1CCCCN1` (centres undefined) here?
**A.** The EC50 was 12.6 µM.

**Q.** For `Cc1nnc(N/N=C/c2ccccn2)[nH]c1=O`, which EC50 is on record?
**A.** The EC50 was 0.81 µM.

**Q.** With `Cn1c(-c2ccc3c(c2)OCO3)cnc1NCc1cccc(Cl)c1` as the molecule, how does the EC50 read?
**A.** Its EC50 is 15.5 µM.

**Q.** `CCCCCCOC(=O)C[N+](C)(C)CCOC1CC2CCC1(C)C2(C)C` (centres undefined) was tested. Which EC50 did it give?
**A.** Its EC50 is 2.8 µM.

**Q.** `O=C(/C=C/c1ccccc1Cl)c1ccccc(=O)c1O` was tested. Which EC50 did it give?
**A.** Its EC50 is 12.6 µM.

**Q.** `Oc1ccc(CN2CCN(Cc3ccccc3)CC2)c2cccnc12` was tested. Which EC50 did it give?
**A.** The EC50 was 12.9 µM.

**Q.** How did the EC50 turn out when `O=C(N/N=C/c1ccc([N+](=O)[O-])s1)C(O)c1ccccc1` (centres undefined) was run?
**A.** The EC50 was 12.1 µM.

**Q.** For `Clc1ccc(Nc2ccc(NCc3ccccc3)nn2)cc1`, which EC50 is on record?
**A.** The EC50 was 21.3 µM.

**Q.** `O=S1(=O)N=C(N/N=C/c2ccccn2)c2ccccc21` was tested. Which EC50 did it give?
**A.** Its EC50 is 22.9 µM.

**Q.** Which EC50 does the source give for `CCOc1cc(/C=C2/NC(=O)N(CC(=O)Nc3cccc(C)c3)C2=O)ccc1OC` here?
**A.** Its EC50 is 30.8 µM.

**Q.** For `O=C(Nc1cccc(N=Cc2cc(Br)cc(Br)c2O)c1)c1ccco1`, which EC50 is on record?
**A.** The EC50 was 38.5 µM.

**Q.** `C#CCOc1ccc(/C=C2\SC(=S)N(Cc3cccnc3)C2=O)cc1` was tested. Which EC50 did it give?
**A.** The EC50 was 5.67 µM.

**Q.** For `Oc1ccc(CN2CCc3ccccc3C2)c2cccnc12`, which EC50 is on record?
**A.** The EC50 was 3.39 µM.

**Q.** With `CN(C)S(=O)(=O)c1cccc(NC(=S)N/N=C/c2cc(Br)ccc2O)c1` as the molecule, how does the EC50 read?
**A.** Its EC50 is 0.65 µM.

**Q.** For `COc1ccc(/C=C/c2nc3ccccc3n2Cc2ccccc2OC)cc1`, which EC50 is on record?
**A.** Its EC50 is 13.2 µM.

**Q.** For `COC(=O)c1c(C)oc2ccc(NS(=O)(=O)c3cccs3)cc12`, which EC50 is on record?
**A.** Its EC50 is 48.4 µM.

**Q.** With `COc1ccc(OCCSc2nnc3sc4ccccc4n23)cc1` as the molecule, how does the EC50 read?
**A.** Its EC50 is 44.1 µM.

**Q.** Which EC50 does the source give for `Cc1ccc(/C=C/C(=O)c2ccccc(=O)c2O)cc1C` here?
**A.** The EC50 was 17.2 µM.

**Q.** With `CCCCCCCCCn1c2c(c(=N)c3c1CCC3)CCCC2` as the molecule, how does the EC50 read?
**A.** Its EC50 is 0.37 µM.

**Q.** With `CCN(CC)c1ccc(/C=N/NC(=S)NCc2ccccc2)c(O)c1` as the molecule, how does the EC50 read?
**A.** The EC50 was 7.54 µM.

**Q.** With `O=C(Nc1ccccc1)Nc1ccc(Cl)c([N+](=O)[O-])c1` as the molecule, how does the EC50 read?
**A.** The EC50 was 14.2 µM.

**Q.** `Cc1cc2nc3ccc(=[N+](C)C)cc-3sc2cc1N` was tested. Which EC50 did it give?
**A.** The EC50 was 1 µM.

**Q.** With `Cc1cc(C2=NNC(=NC3CC3)SC2)c(C)n1-c1ccccc1` as the molecule, how does the EC50 read?
**A.** The EC50 was 46.9 µM.

**Q.** Which EC50 does the source give for `Oc1ccc(-c2n[nH]c(=S)n2-c2ccc3c(c2)OCCO3)c(O)c1` here?
**A.** The EC50 was 33.8 µM.

**Q.** How did the EC50 turn out when `O=C(N/N=C/c1cc([N+](=O)[O-])ccc1O)c1ccncc1` was run?
**A.** Its EC50 is 15.1 µM.

**Q.** How did the EC50 turn out when `NNC(=S)Nc1ccc(Cl)cc1` was run?
**A.** Its EC50 is 48.1 µM.

**Q.** With `CCN1/C(=C/C(C)=C/c2sc3ccccc3[n+]2CC)Sc2ccccc21` as the molecule, how does the EC50 read?
**A.** The EC50 was 13.6 µM.

**Q.** For `CCCCCCCCCCCCCCCCn1cc[n+](CC(C)=O)c1`, which EC50 is on record?
**A.** The EC50 was 0.8 µM.

**Q.** With `CSc1ccc(C(=O)/C=C/c2ccc(N)cc2)cc1` as the molecule, how does the EC50 read?
**A.** The EC50 was 21.7 µM.

**Q.** Which EC50 does the source give for `c1ccc(-c2nnc(-c3ccccn3)nc2NC2CCCCC2)cc1` here?
**A.** The EC50 was 1.37 µM.

**Q.** With `O=C(/C=C/c1ccco1)Oc1cc(Br)cc(/C=N/NC(=O)c2ccccc2O)c1` as the molecule, how does the EC50 read?
**A.** Its EC50 is 0.35 µM.

**Q.** Which EC50 does the source give for `COc1ccc(C)cc1C(=O)CCC(=O)Nc1ccccc1N1CCOCC1` here?
**A.** The EC50 was 8.33 µM.

**Q.** For `Cc1cccc(Nc2nc(NCc3ccco3)c3ccccc3n2)c1`, which EC50 is on record?
**A.** The EC50 was 5.29 µM.

**Q.** How did the EC50 turn out when `O=C(N/N=C/c1ccc([N+](=O)[O-])o1)c1ccc(O)cc1` was run?
**A.** Its EC50 is 12 µM.

**Q.** `CN1CCN(CCCN2c3ccccc3Sc3ccc(Cl)cc32)CC1` was tested. Which EC50 did it give?
**A.** Its EC50 is 14.1 µM.

**Q.** For `Cc1ccc(NC(=O)NCC2CCN(Cc3cccc(Cl)c3)CC2)cc1Cl`, which EC50 is on record?
**A.** Its EC50 is 13.9 µM.

**Q.** How did the EC50 turn out when `CC1CCN(c2ccc(NC(=S)NC(=O)c3ccc(-c4cccc([N+](=O)[O-])c4)o3)cc2)CC1` was run?
**A.** Its EC50 is 23.1 µM.

**Q.** With `CCCCCCC(=O)N(O)C1CC(=O)N(c2ccc(C)cc2)C1=O` (centres undefined) as the molecule, how does the EC50 read?
**A.** Its EC50 is 30.6 µM.

**Q.** `C=C1c2c(Cl)ccc(O)c2C(O)=C2C(=O)[C@]3(O)C(O)=C(C(N)=O)C(=O)[C@@H](N(C)C)[C@@H]3[C@@H](O)C12` (some centres undefined) was tested. Which EC50 did it give?
**A.** Its EC50 is 13 µM.

**Q.** For `Nc1cccc2nc3ccccc3cc12`, which EC50 is on record?
**A.** The EC50 was 4.25 µM.

**Q.** `c1ccc(Nc2nc3ccccc3[nH]2)nc1` was tested. Which EC50 did it give?
**A.** The EC50 was 30.6 µM.

**Q.** With `C#CCN1C(=O)C(O)(CC(=O)c2ccc(OC)c(OC)c2)c2ccccc21` (centres undefined) as the molecule, how does the EC50 read?
**A.** The EC50 was 30.5 µM.

**Q.** With `CNC[C@H](Cc1ccccc1)NC[C@@H](Cc1cccc2ccccc12)NCCc1ccc(C)cc1` as the molecule, how does the EC50 read?
**A.** Its EC50 is 4.75 µM.

**Q.** For `O=C(N/N=C/c1c[nH]c2ccccc12)c1cc(-c2ccc3ccccc3c2)n[nH]1`, which EC50 is on record?
**A.** Its EC50 is 3.02 µM.

**Q.** Which EC50 does the source give for `S=C(Nc1cccc(Cl)c1)Nc1cccc2cnccc12` here?
**A.** The EC50 was 19 µM.

**Q.** How did the EC50 turn out when `CCn1c(N)[n+](CC(=O)Nc2ccc(SC(F)F)cc2)c2ccccc21` was run?
**A.** Its EC50 is 13.3 µM.

**Q.** Which EC50 does the source give for `O=C(NC(NC(=S)Nc1ccc(Cl)c(Cl)c1)C(Cl)(Cl)Cl)c1ccco1` (centres undefined) here?
**A.** The EC50 was 23.5 µM.

**Q.** How did the EC50 turn out when `CCCCCCCCn1c2c(c(=N)c3c1CCC3)CCCC2` was run?
**A.** The EC50 was 0.78 µM.

**Q.** How did the EC50 turn out when `CC(C)(C)c1nn(-c2ccccc2)c2[nH]c(=O)c(CNCc3ccco3)cc12` was run?
**A.** The EC50 was 49.6 µM.

**Q.** With `COc1cc(/C=C/[N+](=O)[O-])ccc1O` as the molecule, how does the EC50 read?
**A.** The EC50 was 12.6 µM.

**Q.** For `Cc1ccc(C(c2cc(Cl)c3cccnc3c2O)N2CCN(C)CC2)cc1` (centres undefined), which EC50 is on record?
**A.** The EC50 was 1.89 µM.

**Q.** `CCN(CC(=O)NC(C)(C)C)C(=O)COc1c(Cl)cc(Cl)c2ccc(C)nc12` was tested. Which EC50 did it give?
**A.** The EC50 was 37.3 µM.

**Q.** For `CCOC(=O)C(C)/C(C)=N/NC(=O)c1cc2ccccc2cc1O` (centres undefined), which EC50 is on record?
**A.** Its EC50 is 6.99 µM.

**Q.** With `N=c1n(CCO)c2ccccc2n1Cc1ccc(Cl)cc1` as the molecule, how does the EC50 read?
**A.** The EC50 was 41.1 µM.
